Patent US20240190857A1, “METHODS FOR MANUFACTURE OF SMALL MOLECULE ACTIVATORS OF TIE-2” (EyePoint Pharmaceuticals, Inc., priority 2020, published 2024)
≈ marks a conversion by molar mass, not a printed value. Read-outs that look alike come from different tables or passages of the source.

Experiment: Solubility of compounds in various solvents
Type: physicochemical
Settings: for solubility: organic solvent or mixture, read-out: Observation: solubility / saturation concentration (S.C.)

## COC(=O)N[C@@H](Cc1ccccc1)C(=O)N[C@@H](Cc1ccc(NS(=O)(=O)[O-])cc1)c1csc(-c2cccs2)n1.[Na+] [Compound 1, sodium (4-((S)-2-((S)-2-((methoxycarbonyl)amino)-3-phenylpropanamido)-2-(2-(thiophen-2-yl)thiazol-4-yl)ethyl)phenyl)sulfamate]
17 °C, Acetone, 17-22° C.
  solubility: < 60 mg/mL
17 °C, Acetone:H2O (80:20), 17-22° C.
  solubility: ≥ 53 mg/mL
17 °C, DMSO, 17-22° C.
  solubility: ≥ 106 mg/mL
17 °C, MeOH, 17-22° C.
  solubility: ~30 mg/mL
17 °C, THF, 17-22° C.
  solubility: < 40 mg/mL

## COC(=O)N[C@@H](Cc1ccccc1)C(=O)N[C@@H](Cc1ccc([N+](=O)[O-])cc1)c1csc(-c2cccs2)n1 [Compound F-3, methyl ((S)-1-(((S)-2-(4-nitrophenyl)-1-(2-(thiophen-2-yl)thiazol-4-yl)ethyl)amino)-1-oxo-3-phenylpropan-2-yl)carbamate]
17 °C, DMF, 17-22° C.
  solubility: ≥ 100 mg/mL
17 °C, THF, 17-22° C.
  solubility: ~5 mg/mL (≈ 9.32 mM)
17 °C, Toluene, 17-22° C.
  solubility: < 5 mg/mL
50 °C, THF, 50-55° C.
  solubility: ~100 mg/mL (≈ 186 mM)
60 °C, 2-MeTHF, 60-65° C.
  solubility: ~15 mg/mL (≈ 28 mM)

## CN(C)C.COC(=O)N[C@@H](Cc1ccccc1)C(=O)N[C@@H](Cc1ccc(NS(=O)(=O)O)cc1)c1csc(-c2cccs2)n1 [Compound F-5, trimethylammonium (4-((S)-2-((S)-2-((methoxycarbonyl)amino)-3-phenylpropanamido)-2-(2-(thiophen-2-yl)thiazol-4-yl)ethyl)phenyl)sulfamate]
MeOH, 17-22° C.
  Observation: solubility / saturation concentration (S.C.): Soluble at 93 mg/mL
